The data set can be described thus: Stability investigation: properties (appearance) of the injection solutions. The format is physicochemical. The following applies: pH of the injectable composition 2.0.

Experimental: The compound represented by formula II and the stabilizer were weighed and dissolved in 90% of a prescribed amount of water for injection. The pH of the solution was adjusted with hydrochloric acid, and then water for injection was added to the full amount. The solution was filled up to 2 mL, and was flushed with nitrogen before and after filling and sealing. The solution was sterilized at 121° C. for 15 minutes to obtain the composition. […] The changes of impurities were detected by high-performance liquid chromatography (HPLC). The analytical method used to detect the impurity content was as follows:
The compound represented by formula II and disodium edetate or calcium disodium edetate were weighed and dissolved in 90% of a prescribed amount of water for injection. The pH of the solution was adjusted with hydrochloric acid, and then water for injection was added to the full amount. The solution was filled in a 2 mL ampoule, and was flushed with nitrogen before and after filling and sealing. The sample was sterilized at 121° C. for 15 minutes to obtain the composition. The compositions were placed under conditions including a high temperature of 60° C. and illumination at 5000 Lx for stability investigation, to determine the properties of the injection solutions and the changes of impurities.

Consider `CNCc1cc(-c2ccccc2F)n(S(=O)(=O)c2cccc(OCCCOC)c2)c1.Cl` [compound represented by formula II], for which the “Solubility (in words)” value is “reduced solubility”.

The values are drawn from patent publication US20260283941A1, “PHARMACEUTICAL COMPOSITION CONTAINING PYRROLE GASTRIC ACID SECRETION INHIBITOR AND PREPARATION METHOD THEREFOR” (JIANGSU CAREPHAR PHARMACEUTICAL CO., LTD., priority 2022, published 2026).
